Laboratory results: US5652222A, “Selective inhibition of leukemic cell proliferation by bcr-abl antisense oligonucleotides” (Temple University-of The Commonwealth System of Higher …, priority 1993, dated 1997)

Tested on: BV173 cells (b2/a2)
Test: Proliferation of BV173 cells expressing b2a2 junction
Format: cell-based, human
Details: in comparison to untreated control cells (FIG. 7)
Procedure: Amplification of the bcr-abl junction with a 5' primer corresponding to bcr exon 2, and a 3' primer corresponding to abl exon 2, followed by hybridization to an 18-mer specific for the b2/a2 or the b3/a2 junction identified the b2/a2 breakpoint in these cells (data not shown).
The sensitivity of the BV173 cells to b2/a2 antisense phosphorothioate oligodeoxynucleotides was assessed. Phosphorothioate oligodeoxynucleotides were prepared on either an Applied Biosystems Model 380B or 390Z Automated Synthesis instrument using conventional phosphoramidite monomers and manufacturer-recommended procedures, which included substitution of tetraethylthiuran (or an equivalent sulfur-donor reagent) for iodine-water-pyridine, […] reversed-phase preparative chromatography, detritylation, and obtaining the final product in the form of its sodium salt, all according to previously published methodology: Zon and Stec, in Oligonucleotides and Analogues A Practical Approach, F. Eckstein, Ed. (Oxford Univerisity Press, Oxford 1991), pp. 87-108; Zon and Geiser, Anti-Cancer Drug Design 6, 539 (1991); Vu and Hirschenbein, Tetrahedron Lett. 32, 3005-3008 (1991).
BV173 cells were cultured in the presence of phosphorothioate b2/a2 antisense 26-mer CGCTGAAGGG CTTCTTCCT ATTGAT (SEQ ID NO:29), the phosphorothioate sense sequence ATCAATAAGGAAGCCCTTCAGCG (SEQUENCE ID NO:34), or the b3/a2 (SEQ ID NO:31) or b1/a2 (SEQ ID N0:33) phosphorothioate antisense 26-mer. […] The sense oligomer SEQ ID NO:34 gave no inhibition (FIG. 7, -.largecircle.-) in comparison to untreated control cells (FIG. 7, -.quadrature.-).

## SEQ ID NO:34: phosphorothioate sense sequence ATCAATAAGGAAGCCCTTCAGCG (23-mer b2a2 sense) (sense ATCAATAAGGAAGCCCTTCAGCG; all phosphorothioate, sugars by position and methylation of C not given here)
  inhibition of proliferation of BV173 cells: no inhibition
